In US20200032313A1 (SANYO CHEMICAL INDUSTRIES, LTD., priority 2017, published 2020):
Like-named read-outs stand apart in the source and are kept apart here.

Assays:
Type in all cases: cell-based
[1] = system: luciferase-expressing Pichia pastoris; details: 8 hours culturing after addition
Procedure: Transformation was performed using Pichia pastoris distributed by Biotechnology Center, National Institute of Technology and Evaluation, whereby luciferase-expressing microorganisms were produced. A vector pPICZ a (Thermo Fisher Scientific) was digested with XhoI and XbaI, and a synthetic (synthesized by Thermo Fisher Scientific on commission) luciferase gene having an XhoI cut site at one end and an XbaI cut site at the other end was inserted into the vector. The microorganisms were transformed by the luciferase gene-inserted pPICZ a according to the method described in an instruction manual of pPICZ a. The luciferase-expressing microorganisms were inoculated using a platinum loop into BMGY broth, and were shake-cultured at 200 rpm at 30° C. for 15 hours. Then, the thus-obtained broth was resuspended in 125-ml BMGY broth (yeast extract 1 wt % (Difco), bacto peptone 2 wt % (Difco), yeast nitrogen base w/o amino acid 1.34 wt % (Difco), glucose 2 wt %, and 100 mM potassium hydrogen phosphate; pH: 6.0) to a final OD of 0.1 OD/ml. Further, the resuspended broth was continued to be shake-cultured at 1100 rpm at 30° C. for about 17 hours until OD was 20 to 30. When OD was 20 to 30, the broth was centrifuged (1500 g, 10 min), and resuspended in 125-ml BMMY broth, followed by culturing at 1100 rpm at 30° C. for 2 hours.
(§1) Two hours later, the surfactant described in Table 2 was added to the broth in the amount (wt %) described in Table 2, and the broth was cultured at 1100 rpm at 30° C. for 8 hours. Subsequently, the broth was sampled for measuring the optical density (optical density at the end of culturing) and for measuring the secretion efficiency. Then, these samples were subjected to centrifugation using a centrifuge to separate bacteria and the supernatant from the broth. Then, the supernatant and the bacteria were collected.
(§2) The optical density of the broth containing the microorganisms collected by sampling was measured in a quartz cell (light path of 1 cm) using a spectrophotometer (UV-1700, Shimadzu Corporation).
(§3) The broth was centrifuged at 1500 rpm at 4° C. for 5 minutes, and the supernatant was discarded. The precipitate was resuspended in a saline solution in an amount equal to the amount of the sample solution, and was diluted in the saline solution to obtain an appropriate absorbance (0.1 to 0.8). Then, the absorbance at 600 nm was measured. The optical density of the broth was calculated using the following mathematical formula (1).
(§4) Broth optical density(OD)=(Absorbance of diluted broth at 600 nm)×dilution factor of broth (Mathematical formula 1)

[2] = system: acid phosphatase-expressing Candida boidinii; details: 8 hours culturing after addition
Procedure: (§5) Candida boidinii was transformed and acid phosphatase-expressing microorganisms were produced based on a method described in a known document (Regulation and evaluation of five methanol-inducible promoters in the methylotrophic yeast Candida boidinii, H. Yurimoto et al., Biochimica et Biophysica Acta, 1493, 2000, pp. 56-63). The acid phosphatase-expressing microorganisms were inoculated using a platinum loop into BMGY broth, and were shake-cultured at 200 rpm at 30° C. for 15 hours. Then, the thus-obtained broth was resuspended in 125-ml BMGY broth to a final OD of 0.1 OD/ml. Further, the resuspended broth was continued to be shake-cultured at 1100 rpm at 30° C. for about 17 hours until OD was 2 to 5. When OD was 2 to 5, methanol was added to a concentration of 2 v/v %, followed by culturing at 1100 rpm at 30° C. for 2 hours.
as §1, with “3” for “2”, “weight” for “amount (wt %)”, “3,” for “2,”, “Eight hours later,” for “Subsequently,”, “culturing),” for “culturing)”, “was” for “for measuring the secretion efficiency. Then, these samples were”
as §2, §3, §4

[3] = system: acid phosphatase-expressing Candida boidinii; details: 8 hours
Procedure: as §5
as §1, with “3” for “2”, “weight” for “amount (wt %)”, “3,” for “2,”, “Eight hours later,” for “Subsequently,”, “culturing),” for “culturing)”, “was” for “for measuring the secretion efficiency. Then, these samples were”
Then, 50 mM acetic acid NaBf (pH 4.0) was added to the bacteria, followed by centrifugation, whereby the bacteria were washed. The washed bacteria were resuspended in 50 mM acetic acid NaBf (pH 4.0), whereby a sample for measuring the acid phosphatase activity on the bacterial surface was obtained.
The supernatant obtained in each of Examples 23 to 33 and Comparative Example 3 was mixed with a 2 M sodium acetate buffer (pH 4.0) in an amount of 5 μl that is 1/40 of the amount of the supernatant. The buffer-containing supernatant or the sample for measuring the bacterial surface obtained in each of Examples 23 to 33 was mixed with a substrate solution (50 mM sodium acetate buffer containing 0.64 mg/ml of p-nitrophenylphosphate; pH 4.0) at a capacity ratio of 1:1, and the mixture was reacted at 35° C. for 10 minutes.
After the reaction, a 10% solution of trichloroacetic acid in an amount equal to the amount of the reaction solution was added to the reaction solution to terminate the reaction. To develop a color, a saturated sodium carbonate solution in an amount equal to the total amount of the reaction solution was added to the solution in which the reaction has been terminated. The color-developed solution was centrifuged at 1500×g for 5 minutes to remove the insoluble fraction, and the absorbance at 420 nm was measured using a microplate reader “PowerWave” (Biotek). The reference wavelength was set to 630 nm.
The acid phosphatase activity of each of the supernatant and the sample for measuring the bacterial surface was calculated from the following formula. The thus-obtained acid phosphatase activity of the supernatant was regarded as the “acid phosphatase activity of secreted and produced useful substance” and the acid phosphatase activity of the sample for measuring the bacterial surface was regarded as the “acid phosphatase activity of useful substance remaining on bacterial surface”.
Acid phosphatase activity=((Abs 420 nm)−(Abs 630 nm))/(optical density at the end of culturing)
For each of Examples 23 to 33 and Comparative Example 3, the obtained value of the “acid phosphatase activity of secreted and produced useful substance” and the obtained value of the “acid phosphatase activity of useful substance remaining on bacterial surface” were used to calculate the secretion efficiency from the following mathematical formula.
Secretion efficiency (%)=100×(Acid phosphatase activity of secreted and produced useful substance)/(total acid phosphatase activity) […]

[4] = surfactant 0.03 wt % of broth, Examples 13, 16-22
[5] = surfactant 0.003 wt % of broth, Example 23
[6] = surfactant 0.03 wt % of broth, Examples 24, 27-33
[7] = surfactant 0.3 wt % of broth, Example 25
[8] = surfactant 3 wt % of broth, Example 26

Compound | Optical density (OD) of broth at the end of culturing [1, 4] [OD] | Optical density (OD) of broth at the end of culturing [2, 6] [OD] | Secretion efficiency (%) [3, 6] [%] | further results
CCCCCCCCCCCCNCCC(=O)O | 21.1 | 6.0 | 63 | Optical density (OD) of broth at the end of culturing ([1]; surfactant 0.003 wt % of broth, Example 12): 22.2 OD; Optical density (OD) of broth at the end of culturing ([1]; surfactant 0.3 wt % of broth, Example 14): 18.1 OD; Optical density (OD) of broth at the end of culturing ([1]; surfactant 3 wt % of broth, Example 15): 10.5 OD; Optical density (OD) of broth at the end of culturing [2, 5]: 5.1 OD; Optical density (OD) of broth at the end of culturing [2, 7]: 2.7 OD; Optical density (OD) of broth at the end of culturing [2, 8]: 2.7 OD; Secretion efficiency (%) [3, 5]: 49%; Secretion efficiency (%) [3, 7]: 77%; Secretion efficiency (%) [3, 8]: 79%
CCCCCCCCCCCC[N+](C)(C)C.[Cl-] [Surfactant (A2-1), lauryl trimethyl ammonium chloride] | 15.8 | 3.94 | 61 | 
CCCCCCCCCCCC[N+](C)(C)CCCS(=O)(=O)O.[OH-] [Surfactant (A3-3), dodecyldimethyl(3-sulfopropyl)ammonium hydroxide] | 27.6 | 8.07 | 54 | 
CCCCCCCCCCCCCCCCOP(=O)([O-])OCC[N+](C)(C)C [Surfactant (A3-4), miltefosine, reference compound] | 30.7 | 7.91 | 54 | 
CCCCCCCCCCCC[N+](C)(C)CC(=O)[O-] [Surfactant (A3-5), betaine lauryldimethylaminoacetate] | 26.1 | 7.33 | 61 | 
sodium (2-dodecylamino)ethanesulfonate [Surfactant (A3-1)] | 27.0 | 5.7 | 57 | 
sodium polyoxyethylene (average 2.5 mol adduct) lauryl ether sulfate [Surfactant (A1-1)] | 26.8 | 5.77 | 49 | 
sodium polyoxyethylene (average 3 mol adduct) lauryl ether acetate [Surfactant (A1-2)] | 29.1 | 5.68 | 48 | 
